According to paper PMC9783881, “Synthesis and Preclinical Evaluation of Small-Molecule Prostate-Specific Membrane Antigen-Targeted Abiraterone Conjugate” (Molecules, 2022):
“Also recorded” adds a separate entry of the source.

What was measured:
Acute toxicity in mice = format: in vivo
Protocol: White, outbred male mice (ICR) about 2 months old weighing 19–21 g were used. Conjugate PSMA-Abi (2000 mg/kg) was formulated with 1% starch gel solution. The mixture was administrated intragastrically in an amount not exceeding 0.5 mL, and in portions if necessary. The control group was administered 1% starch gel solution. Animals were kept under controlled environmental conditions: air temperature 20–26 °C and relative humidity 30–70%. Lighting in the rooms was artificial (a cycle of 12 h of light, 12 h of darkness). Before the start of the study, animals were divided into groups of 10 animals per group. The distribution was made such that the average masses of groups of animals of one species differed by no more than 10%. Before the experiment concerning the determination of acute toxicity, the animals were deprived of food and water (mice for 2 h) and then weighed. The duration of observation of laboratory animals was 14 days. During this period, visible signs of intoxication were evaluated. Dose selection was carried out based on 22Rv1 xenograft experiments with the maximum effective dose for mice of 500 mg/kg.

[1] = test system: 22Rv1 prostate cancer subcutaneous xenograft; assay: 22Rv1 human tumor xenograft mouse model; format: in vivo, Balb/c nude mice; settings: 22Rv1 xenografts
Protocol: Male, 6–8 week old Balb/c nude mice with body weight range of 20–22 g were purchased from N.N.Blokhin Cancer Research Center. Animals were kept in plastic cages equipped with lids with feeding recesses, air filters, and feed dividers at 2–3 mice per cage.
Mice were injected subcutaneously in the right and left flanks with 1 × 10^7 22Rv1 cells in RPMI-1640 medium 0.2 mL supplemented with 0.2 mL Corning Matrigel® matrix (Corning, NY, USA) in a total volume of 400 μL. When the average size of the tumors reached ~100 mm^3, mice were randomly divided into three groups, with five mice per group, including a vehicle group (1% starch paste) and two treatment groups: PSMA-Abi 500 mg/kg/day and AbiAc 200 mg/kg/day for 14 days. The drugs were administered orally, and all compounds were formulated with 1% starch paste. Following the treatment, the primary tumor size was measured twice weekly with a micro-caliper, and the tumor volume was calculated using the formula: Volume = π/6 × length × width × height. Treatment outcome was based on percentage of tumor growth inhibition (%TGI), defined as the percent difference between the median tumor volumes (MTVs) of mice in the treated and control groups. Percent TGI was calculated using the following formula: %TGI = [1 − (MTV treatment group/MTV control)] 100%. All data are presented as means ± SD. Statistical analyses of in vivo research were performed using SPSS Statistics V. 22.0, comparing continuous variables by non-parametrical Mann–Whitney U. * p ≤ 0.05 was considered as significant in comparison with the control.

cytochrome P450 2C19 = target: T1, cytochrome P450 2C19 (Homo sapiens, UniProt P33261); assay: Cytochrome inhibition in human liver microsomes, 2C19; format: in vitro ADME; settings: substrate Mephenytoin, read-out: IC50, 2C19 (PSMA-Abi)
T1 construct: isoenzyme activity in human liver microsomes using conventional sample substrates and HPLC-MS/MS detection; from tissue; host or cells: human liver microsomes
T1 sequence (P33261 whole entry): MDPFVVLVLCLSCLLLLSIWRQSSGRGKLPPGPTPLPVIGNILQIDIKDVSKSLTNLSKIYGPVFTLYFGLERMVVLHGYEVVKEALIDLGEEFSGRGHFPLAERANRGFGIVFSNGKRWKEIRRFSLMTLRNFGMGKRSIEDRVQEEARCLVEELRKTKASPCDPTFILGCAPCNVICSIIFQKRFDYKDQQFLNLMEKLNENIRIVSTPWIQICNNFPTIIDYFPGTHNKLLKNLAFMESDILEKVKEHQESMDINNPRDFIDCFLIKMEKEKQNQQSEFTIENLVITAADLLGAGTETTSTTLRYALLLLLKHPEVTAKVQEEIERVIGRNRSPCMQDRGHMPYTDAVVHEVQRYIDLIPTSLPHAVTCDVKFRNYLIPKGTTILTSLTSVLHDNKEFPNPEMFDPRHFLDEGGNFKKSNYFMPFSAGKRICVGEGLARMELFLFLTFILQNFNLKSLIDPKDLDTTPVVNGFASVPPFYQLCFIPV
Source text: To assess the effect of drugs on liver cytochrome activity in drug development, test systems with recombinant enzymes and fluorescent substrates as well as microsomes with metabolic substrates and HPLC-MS/MS analysis were used. The present study aimed to investigate the effect of targeted delivery drugs specific to malignant prostate cells on cytochrome P450 (CYP450) isoenzyme activity in human liver microsomes using conventional sample substrates and HPLC-MS/MS detection. Detailed methodological parameters are described in the Supplementary Material.

Pharmacokinetics in rats = format: in vivo
Protocol: The pharmacokinetic parameters were studied for healthy, outbred, adult, male, albino rats (Wistar) about 3 months old weighing 190–210 g. The experiment included 3 rats for preparation. The formulation of conjugate PSMA-Abi was the same as for the acute toxicity evaluation. Administration dose was 1000 mg/kg.
Blood samples were taken from the tail vein of rats in a volume of 0.2 mL in polyethylene micro-tubes with a capillary up to 0.5 mL by trimming the tip of the tail. K2EDTA was used as an anticoagulant. During the study, a total of 48 blood samples from 3 animals (16 samples from each animal) were selected for PSMA-Abi.
Immediately after taking a blood sample, the tube was carefully inverted several times to mix the contents (anticoagulant). The plasma was then separated by centrifugation at 1500× g for 10 min at a temperature of +4 °C. Centrifugation was performed no later than 15 min after sampling each blood sample. The studied conjugate PSMA-Abi was determined in the blood plasma samples of rats and rabbits by high-performance liquid chromatography (Agilent 1200) with tandem mass spectrometric detection (QTrap 4500 tandem mass spectrometer) with preliminary isolation of the analyte from the biomaterial. Detailed method parameters are described in Table S6.

[2] = mice males, 2000 mg/kg single, M±SD
[3] = oral x14, PSMA-Abi 500, AbiAc 200 mg/kg/day
[4] = single oral administration, mean
[5] = single peroral 1000 mg/kg, Mean ± SD

**Q.** With `C[C@]12CC[C@H](OC(=O)CCCc3cn(CCCNC(=O)[C@H](Cc4ccc(O)cc4)NC(=O)[C@H](Cc4ccccc4)NC(=O)CCC(=O)NCCCCCC(=O)N(CCCC[C@H](NC(=O)N[C@@H](CCC(=O)O)C(=O)O)C(=O)O)Cc4cccc(Cl)c4)nn3)CC1=CC[C@@H]1[C@@H]2CC[C@]2(C)C(c3cccnc3)=CC[C@@H]12` [PSMA-Abi] as the compound, how does the “weight dynamic, % of starting weight, 5 days” value (Acute toxicity in mice; [2]) read?
**A.** 17.5±7.4%

**Q.** What about the “weight dynamic, % of starting weight, 10 days” value (Acute toxicity in mice; [2]) of the same compound?
**A.** 30.9±11.5%

**Q.** And the “weight dynamic, % of starting weight, 14 days” value (Acute toxicity in mice; [2])?
**A.** 30.7±17.9%

**Q.** And the “growth rate (body weight), % of initial weight” value (Acute toxicity in mice; mice, 2000 mg/kg single dose, by the 14th day, control 50)?
**A.** 30%

**Q.** And the animal death (Acute toxicity in mice; mice, 2000 mg/kg single dose, intragastric, 14 days observation, 2000 mg/kg)?
**A.** No animal death was observed; also recorded: without animal death

**Q.** And the tolerable dose (Acute toxicity in mice; mice, single dose)?
**A.** 2000 mg/kg

**Q.** What about the “TGImax (tumor growth inhibition)” value ([1]; oral x14, PSMA-Abi 500 mg/kg/day, AbiAc 200 mg/kg/day, after the end of treatment) of the same compound?
**A.** 65%

**Q.** What about the “TGI, day 15 after start of the treatment” value [1, 3] of the same compound?
**A.** 65%

**Q.** What about the “TGI, day 18 after start of the treatment” value [1, 3] of the same compound?
**A.** 63%

**Q.** What about the “TGI, day 22 after start of the treatment” value [1, 3] of the same compound?
**A.** 60%

**Q.** What about the “Tumor volume (M+SE), day 15” value [1, 3] of the same compound?
**A.** 876±197 mm3

**Q.** What about the “Tumor volume (M+SE), day 18” value [1, 3] of the same compound?
**A.** 1063±195 mm3

**Q.** And the “Tumor volume (M+SE), day 22” value [1, 3]?
**A.** 1294±201 mm3

**Q.** And the “Tumor volume (M+SE), day 0” value ([1]; start of treatment)?
**A.** 110±18 mm3

**Q.** And the IC50 (cytochrome P450 2C19)?
**A.** > 25 µM

**Q.** And the “maximum plasma concentrations, range over animals” value (Pharmacokinetics in rats; oral 1000 mg/kg)?
**A.** 190 to 537 ng/mL

**Q.** What about the “time plasma concentrations were detected after administration” value (Pharmacokinetics in rats; oral 1000 mg/kg) of the same compound?
**A.** at least 72 h

**Q.** What about the “time to maximum plasma concentration, range over animals” value (Pharmacokinetics in rats; oral 1000 mg/kg) of the same compound?
**A.** 1.5 to 8 h

**Q.** What about the “AUC0–t” value (Pharmacokinetics in rats; [4]) of the same compound?
**A.** 3791 ± 875 ng·h/mL

**Q.** What about the “AUC0–∞” value (Pharmacokinetics in rats; [4]) of the same compound?
**A.** 4623 ± 1260 ng·h/mL

**Q.** What about the Cmax (Pharmacokinetics in rats; single peroral 1000 mg/kg, 1% starch suspension, Mean ± SD) of the same compound?
**A.** 318 ± 190 ng/mL

**Q.** And the “AUC0–t” value (Pharmacokinetics in rats; [5])?
**A.** 3791 ± 875 ng·h/mL

**Q.** And the “AUC0–∞” value (Pharmacokinetics in rats; [5])?
**A.** 4623 ± 1260 ng·h/mL

**Q.** What about the “AUCt–∞/AUC0–∞” value (Pharmacokinetics in rats; [5]) of the same compound?
**A.** 21 ± 5%

**Q.** And the Kel (Pharmacokinetics in rats; [5])?
**A.** 0.023 ± 0.006 h⁻¹

**Q.** What about the “MRT0–t” value (Pharmacokinetics in rats; [5]) of the same compound?
**A.** 27.2 ± 1.7 h

**Q.** What about the “T1/2 (elimination half-life)” value (Pharmacokinetics in rats; [5]) of the same compound?
**A.** 31.3 ± 8.7 h

**Q.** What about the Tmax (Pharmacokinetics in rats; single peroral 1000 mg/kg, mean) of the same compound?
**A.** 3.8 h
